Paper PMC7422722, “The complete functional characterisation of the terpene synthase family in tomato” (The New Phytologist, 2020)

Assays:
Type in all cases: biochemical
TPS25 = biological target: T1, TPS25 (Solanum lycopersicum, UniProt G5CV49); assay: in vitro assay, GC-MS of products; settings: product mostly beta-ocimene
T1 construct: recombinant, E. coli pET32b or pET28a, His-tagged, purified
T1 sequence (G5CV49 1-576): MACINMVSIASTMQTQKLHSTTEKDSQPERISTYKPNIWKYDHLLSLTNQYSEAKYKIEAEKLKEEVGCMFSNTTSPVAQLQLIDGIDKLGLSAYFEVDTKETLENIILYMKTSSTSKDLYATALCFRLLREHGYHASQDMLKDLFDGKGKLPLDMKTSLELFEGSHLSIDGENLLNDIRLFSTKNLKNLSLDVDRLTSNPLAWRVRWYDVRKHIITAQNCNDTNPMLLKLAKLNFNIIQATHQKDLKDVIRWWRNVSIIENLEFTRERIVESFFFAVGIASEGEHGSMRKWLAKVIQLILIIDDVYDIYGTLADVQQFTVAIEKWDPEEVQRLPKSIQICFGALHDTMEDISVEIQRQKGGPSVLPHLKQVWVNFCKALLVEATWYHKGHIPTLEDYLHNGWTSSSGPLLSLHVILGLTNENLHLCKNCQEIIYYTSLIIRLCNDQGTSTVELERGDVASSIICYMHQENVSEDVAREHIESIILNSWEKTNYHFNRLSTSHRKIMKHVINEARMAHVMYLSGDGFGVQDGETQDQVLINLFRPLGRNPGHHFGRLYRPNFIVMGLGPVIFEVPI

TPS51 = biological target: T2, TPS51 (Solanum lycopersicum, UniProt A0A6H0JLJ2); assay: in vitro assay, GC-MS of products
T2 construct: recombinant, E. coli (codon-optimised gene made), His-tagged, purified; full length 550 residues; gene on chromosome 7
T2 sequence (A0A6H0JLJ2 1-550): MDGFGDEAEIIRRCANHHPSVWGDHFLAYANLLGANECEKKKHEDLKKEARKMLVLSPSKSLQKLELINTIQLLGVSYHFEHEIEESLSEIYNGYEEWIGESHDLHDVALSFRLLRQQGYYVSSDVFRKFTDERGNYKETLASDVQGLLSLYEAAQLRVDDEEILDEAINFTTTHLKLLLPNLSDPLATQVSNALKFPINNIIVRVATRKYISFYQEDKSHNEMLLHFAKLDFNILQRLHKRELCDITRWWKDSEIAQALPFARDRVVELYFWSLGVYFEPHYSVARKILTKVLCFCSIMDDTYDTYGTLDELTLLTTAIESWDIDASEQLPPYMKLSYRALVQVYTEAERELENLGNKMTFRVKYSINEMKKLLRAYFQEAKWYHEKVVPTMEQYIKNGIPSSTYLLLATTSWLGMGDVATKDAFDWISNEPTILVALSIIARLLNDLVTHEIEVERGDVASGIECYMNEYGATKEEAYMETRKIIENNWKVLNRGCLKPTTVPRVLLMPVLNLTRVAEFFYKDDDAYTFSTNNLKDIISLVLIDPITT

TPS27 = biological target: T3, TPS27 (Solanum lycopersicum, UniProt G5CV48); assay: in vitro assay, GC-MS of products; settings: product alpha-farnesene
T3 construct: recombinant, E. coli pET32b or pET28a, His-tagged, purified
T3 sequence (G5CV48 1-554): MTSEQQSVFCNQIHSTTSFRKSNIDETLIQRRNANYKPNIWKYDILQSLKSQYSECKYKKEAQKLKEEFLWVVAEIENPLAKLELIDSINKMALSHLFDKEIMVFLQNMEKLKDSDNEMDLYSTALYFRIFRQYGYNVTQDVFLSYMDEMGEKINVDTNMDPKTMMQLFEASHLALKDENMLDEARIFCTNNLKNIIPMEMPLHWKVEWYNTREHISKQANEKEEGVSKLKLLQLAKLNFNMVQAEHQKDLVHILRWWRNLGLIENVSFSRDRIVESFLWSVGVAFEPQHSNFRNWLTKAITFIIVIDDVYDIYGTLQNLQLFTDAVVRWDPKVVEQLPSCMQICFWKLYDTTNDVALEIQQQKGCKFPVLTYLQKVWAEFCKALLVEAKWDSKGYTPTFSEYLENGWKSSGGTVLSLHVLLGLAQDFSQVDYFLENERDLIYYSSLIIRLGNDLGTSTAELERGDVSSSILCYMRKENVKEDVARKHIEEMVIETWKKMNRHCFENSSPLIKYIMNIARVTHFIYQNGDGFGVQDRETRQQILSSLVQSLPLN

TPS52 = biological target: T4, TPS52 (Solanum lycopersicum, UniProt A0A6H0JLZ2); assay: in vitro assay, GC-MS of products
T4 construct: recombinant, E. coli (codon-optimised gene made), His-tagged, purified; full length 551 residues; gene on chromosome 7
T4 sequence (A0A6H0JLZ2 1-551): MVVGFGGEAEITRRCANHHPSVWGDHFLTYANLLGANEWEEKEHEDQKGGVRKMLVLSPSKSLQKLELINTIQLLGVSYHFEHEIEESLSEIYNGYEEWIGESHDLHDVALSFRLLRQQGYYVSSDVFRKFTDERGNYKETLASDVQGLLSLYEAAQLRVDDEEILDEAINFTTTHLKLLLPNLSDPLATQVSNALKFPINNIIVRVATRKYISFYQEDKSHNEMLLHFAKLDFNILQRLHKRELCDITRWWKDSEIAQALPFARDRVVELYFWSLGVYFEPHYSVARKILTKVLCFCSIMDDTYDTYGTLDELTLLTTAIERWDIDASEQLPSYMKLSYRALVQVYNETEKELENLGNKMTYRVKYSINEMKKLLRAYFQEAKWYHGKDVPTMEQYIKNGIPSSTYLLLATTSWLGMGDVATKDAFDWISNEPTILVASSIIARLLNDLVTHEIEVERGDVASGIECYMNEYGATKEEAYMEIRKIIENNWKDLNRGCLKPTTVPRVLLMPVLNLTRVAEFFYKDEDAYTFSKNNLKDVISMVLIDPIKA

GGPPS2 = biological target: T5, GGPPS2 (Solanum lycopersicum, UniProt Q1A7S9); assay: in vitro prenyltransferase assay, products hydrolysed, GC-MS; settings: co-substrate IPP; without SSU
T5 construct: gene GGPS2

GGPPS1 = biological target: T6, GGPPS1 (Solanum lycopersicum, UniProt Q1A7T0); assay: as above; settings: co-substrate IPP; without SSU
T6 construct: gene GGPS1

TPS47 = biological target: T7, TPS47 (Solanum lycopersicum, UniProt K4BEJ5); assay: in vitro assay, headspace SPME GC-MS; settings: product isoprene; 42 °C headspace collection
T7 construct: gene LOC101258440; recombinant, E. coli (codon-optimised gene made), His-tagged, purified; full length 562 residues; gene on chromosome 3
T7 sequence (K4BEJ5 1-562): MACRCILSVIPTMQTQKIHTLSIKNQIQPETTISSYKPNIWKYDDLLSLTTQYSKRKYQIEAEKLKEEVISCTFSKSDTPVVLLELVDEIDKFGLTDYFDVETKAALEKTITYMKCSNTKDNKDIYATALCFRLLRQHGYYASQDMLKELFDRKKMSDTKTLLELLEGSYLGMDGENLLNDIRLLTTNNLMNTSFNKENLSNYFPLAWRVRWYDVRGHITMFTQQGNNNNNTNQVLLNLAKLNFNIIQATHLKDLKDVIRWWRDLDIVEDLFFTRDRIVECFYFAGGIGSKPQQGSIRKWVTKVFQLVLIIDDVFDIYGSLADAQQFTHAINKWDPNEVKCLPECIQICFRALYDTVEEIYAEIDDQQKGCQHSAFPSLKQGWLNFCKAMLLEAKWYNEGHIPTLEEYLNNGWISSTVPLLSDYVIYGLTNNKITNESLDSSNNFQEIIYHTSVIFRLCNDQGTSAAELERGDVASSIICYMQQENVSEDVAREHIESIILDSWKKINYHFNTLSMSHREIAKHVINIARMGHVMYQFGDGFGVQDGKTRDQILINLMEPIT

TPS35 = biological target: T8, TPS35 (Solanum lycopersicum, UniProt G5CV43); assay: in vitro assay, GC-MS of products; settings: product predominantly Z,Z-farnesol
T8 construct: recombinant, E. coli pET32b or pET28a, His-tagged, purified
T8 sequence (G5CV43 1-556): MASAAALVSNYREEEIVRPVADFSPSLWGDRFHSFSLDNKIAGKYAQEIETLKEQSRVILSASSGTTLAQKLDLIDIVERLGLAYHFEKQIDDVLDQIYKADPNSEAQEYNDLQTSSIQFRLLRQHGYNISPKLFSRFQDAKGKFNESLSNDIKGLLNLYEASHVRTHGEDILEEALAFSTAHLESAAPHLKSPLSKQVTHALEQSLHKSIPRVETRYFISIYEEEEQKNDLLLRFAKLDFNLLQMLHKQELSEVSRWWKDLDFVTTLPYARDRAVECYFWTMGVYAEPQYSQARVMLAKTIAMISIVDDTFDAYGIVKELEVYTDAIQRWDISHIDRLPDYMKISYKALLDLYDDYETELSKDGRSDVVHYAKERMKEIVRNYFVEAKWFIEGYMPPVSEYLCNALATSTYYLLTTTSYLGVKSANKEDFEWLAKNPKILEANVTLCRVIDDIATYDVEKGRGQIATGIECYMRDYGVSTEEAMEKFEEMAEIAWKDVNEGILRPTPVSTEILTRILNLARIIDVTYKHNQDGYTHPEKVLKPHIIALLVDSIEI

TPS36 = biological target: T9, TPS36 (Solanum lycopersicum, UniProt G5CV42); assay: in vitro assay, GC-MS of products; settings: product mostly cis-muurola-3,5-diene
T9 construct: recombinant, E. coli pET32b or pET28a, His-tagged, purified, putative transit peptide removed (mitochondrial enzyme)

TPS33 = biological target: T10, TPS33 (Solanum lycopersicum, UniProt G5CV44); assay: in vitro assay, GC-MS of products; settings: several sesquiterpene products
T10 construct: recombinant, E. coli pET32b or pET28a, His-tagged, purified
T10 sequence (G5CV44 1-552): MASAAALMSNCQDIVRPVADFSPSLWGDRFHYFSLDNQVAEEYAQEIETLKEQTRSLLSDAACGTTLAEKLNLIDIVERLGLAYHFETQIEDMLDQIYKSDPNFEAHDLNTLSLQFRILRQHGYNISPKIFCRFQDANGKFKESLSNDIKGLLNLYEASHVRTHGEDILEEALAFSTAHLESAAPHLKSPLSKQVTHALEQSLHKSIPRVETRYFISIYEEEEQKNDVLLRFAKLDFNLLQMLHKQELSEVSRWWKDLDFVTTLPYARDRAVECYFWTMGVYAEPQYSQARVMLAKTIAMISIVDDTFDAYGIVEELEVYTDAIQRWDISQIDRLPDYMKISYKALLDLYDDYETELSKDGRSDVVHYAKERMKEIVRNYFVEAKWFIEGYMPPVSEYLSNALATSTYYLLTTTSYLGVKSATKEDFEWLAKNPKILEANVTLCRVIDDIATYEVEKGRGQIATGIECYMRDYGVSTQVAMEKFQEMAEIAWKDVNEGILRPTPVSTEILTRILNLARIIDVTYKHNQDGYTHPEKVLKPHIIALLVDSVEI

TPS28 = biological target: T11, TPS28 (Solanum lycopersicum, UniProt G5CV47); assay: in vitro assay, GC-MS of products; settings: product unidentified sesquiterpene
T11 construct: recombinant, E. coli pET32b or pET28a, His-tagged, purified
T11 sequence (G5CV47 1-554): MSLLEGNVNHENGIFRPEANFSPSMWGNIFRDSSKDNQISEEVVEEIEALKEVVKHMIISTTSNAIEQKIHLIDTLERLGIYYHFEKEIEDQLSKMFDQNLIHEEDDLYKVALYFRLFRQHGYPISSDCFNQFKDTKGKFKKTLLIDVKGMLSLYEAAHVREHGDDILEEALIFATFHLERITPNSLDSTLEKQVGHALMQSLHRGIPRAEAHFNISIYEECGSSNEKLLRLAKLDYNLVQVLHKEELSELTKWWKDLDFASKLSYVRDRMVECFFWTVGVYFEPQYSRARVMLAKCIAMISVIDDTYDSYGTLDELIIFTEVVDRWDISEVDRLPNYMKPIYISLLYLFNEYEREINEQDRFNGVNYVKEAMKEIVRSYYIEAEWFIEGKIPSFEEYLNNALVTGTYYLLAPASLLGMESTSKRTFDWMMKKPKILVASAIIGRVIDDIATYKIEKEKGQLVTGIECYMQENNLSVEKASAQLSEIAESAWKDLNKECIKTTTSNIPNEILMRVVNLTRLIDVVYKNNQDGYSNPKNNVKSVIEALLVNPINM

T5 sequence (Q1A7S9 57-363): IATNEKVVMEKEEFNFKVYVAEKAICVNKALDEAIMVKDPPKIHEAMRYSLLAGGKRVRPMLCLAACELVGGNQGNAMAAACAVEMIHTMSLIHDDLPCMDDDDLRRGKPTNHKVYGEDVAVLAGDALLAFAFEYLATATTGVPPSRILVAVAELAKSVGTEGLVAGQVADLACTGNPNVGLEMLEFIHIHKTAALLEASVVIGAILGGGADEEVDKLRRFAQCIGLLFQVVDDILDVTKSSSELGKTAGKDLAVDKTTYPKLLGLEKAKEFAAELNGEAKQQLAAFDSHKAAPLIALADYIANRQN
T6 sequence (Q1A7T0 60-365): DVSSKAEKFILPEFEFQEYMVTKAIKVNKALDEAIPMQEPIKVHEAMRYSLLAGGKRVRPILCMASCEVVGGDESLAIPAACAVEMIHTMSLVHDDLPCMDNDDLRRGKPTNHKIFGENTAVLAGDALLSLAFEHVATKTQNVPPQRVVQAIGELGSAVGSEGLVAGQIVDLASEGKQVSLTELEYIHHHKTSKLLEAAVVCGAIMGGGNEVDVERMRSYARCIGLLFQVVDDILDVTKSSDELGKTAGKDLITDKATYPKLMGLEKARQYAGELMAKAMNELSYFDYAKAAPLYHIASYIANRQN
T9 sequence (G5CV42 entry or part of it): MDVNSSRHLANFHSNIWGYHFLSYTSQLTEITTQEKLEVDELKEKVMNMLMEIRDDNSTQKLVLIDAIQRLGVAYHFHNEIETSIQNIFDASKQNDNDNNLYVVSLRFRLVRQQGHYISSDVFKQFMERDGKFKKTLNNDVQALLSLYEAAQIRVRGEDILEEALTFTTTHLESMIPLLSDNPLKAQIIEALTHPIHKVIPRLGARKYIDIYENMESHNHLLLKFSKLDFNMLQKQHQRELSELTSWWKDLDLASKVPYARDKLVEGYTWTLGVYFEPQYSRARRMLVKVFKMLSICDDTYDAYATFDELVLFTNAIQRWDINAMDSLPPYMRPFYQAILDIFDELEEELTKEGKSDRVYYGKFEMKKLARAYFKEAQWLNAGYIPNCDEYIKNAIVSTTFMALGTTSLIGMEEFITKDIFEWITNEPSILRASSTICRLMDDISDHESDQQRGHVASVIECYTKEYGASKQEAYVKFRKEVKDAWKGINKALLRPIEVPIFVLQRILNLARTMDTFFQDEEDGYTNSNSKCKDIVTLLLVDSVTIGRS

## CC(C)=CCC/C(C)=C/COP(=O)(O)OP(=O)(O)O [GPP]
TPS25
  in vitro assay, GC-MS of products: TPS25 had activity only with GPP as the substrate, producing mostly β-ocimene

## CC(C)=CCC/C(C)=C/CC/C(C)=C/COP(=O)(O)OP(=O)(O)O [E,E-FPP]
TPS51; product mostly E-nerolidol
  in vitro assay, GC-MS of products: catalysed the formation of mostly E-nerolidol from E,E-FPP
TPS27
  in vitro assay, GC-MS of products: TPS27 had activity only with E,E-FPP to form α-farnesene
TPS52; product mostly E-nerolidol
  in vitro assay, GC-MS of products: catalysed the formation of mostly E-nerolidol from E,E-FPP

## CC(C)=CCOP(=O)(O)OP(=O)(O)O [DMAPP]
GGPPS2
  in vitro prenyltransferase assay, products hydrolysed, GC-MS: affinity-purified His-tagged recombinant proteins were incubated with IPP and DMAPP
GGPPS1
  in vitro prenyltransferase assay, products hydrolysed, GC-MS: affinity-purified His-tagged recombinant proteins were incubated with IPP and DMAPP
TPS47
  in vitro assay, headspace SPME GC-MS: When tested in vitro, TPS47 catalysed the formation of isoprene from DMAPP

## CC(C)=CCC/C(C)=C\CC/C(C)=C\COP(=O)(O)OP(=O)(O)O [Z,Z-FPP]
TPS35
  in vitro assay, GC-MS of products: while TPS35 made predominantly Z,Z-farnesol
TPS51; several sesquiterpene products
  in vitro assay, GC-MS of products: α-bisabolene, β-bisabolene and Z-β-farnesene) from Z,Z-FPP
TPS36
  in vitro assay, GC-MS of products: TPS36 only had activity using Z,Z-FPP and produced mostly cis-muurola-3,5-diene
TPS33
  in vitro assay, GC-MS of products: When assayed with Z,Z-FPP, TPS33 made several sesquiterpenes
TPS28
  in vitro assay, GC-MS of products: TPS28 and TPS48 also catalysed the formation of a major sesquiterpene from Z,Z-FPP
TPS52; several sesquiterpene products
  in vitro assay, GC-MS of products: α-bisabolene, β-bisabolene and Z-β-farnesene) from Z,Z-FPP
